# Reference: PubChem BioAssay (NCI)
#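 Method: 48-hour compound exposure of cells in 96-well plates, five concentrations, linear interpolation of endpoints. GI50 is the concentration that inhibits growth by half. TGI denotes the concentration required for complete inhibition of growth.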
# Columns and labels:
# Assay in all cases: inhibition of tumour cell growth, NCI panel, 48 h
# [1] = test system: HT29 colon
# [2] = test system: SN12C renal
# [3] = test system: CAKI-1 renal
# [4] = test system: K-562 leukemia
# [5] = test system: UACC-62 melanoma
# [6] = test system: SF-539 CNS
# [7] = test system: NCI/ADR-RES ovarian
# [8] = test system: OVCAR-5 ovarian
# [9] = test system: OVCAR-8 ovarian
# [10] = test system: MALME-3M melanoma
# [11] = test system: NCI-H226 lung
# [12] = test system: SK-MEL-5 melanoma
# [13] = test system: A498 renal
# [14] = test system: IGROV1 ovarian
# [15] = test system: A549 NSCLC
# [16] = test system: HOP-92 NSCLC
# [17] = test system: SW-620 colon
smiles,measurement,setting,value
CCOP(=O)(OCC)C(c1ccc(F)cc1)N(C(=O)NC(F)(F)F)c1cccc(C(F)(F)F)c1 (stereo not drawn),TGI,[1],> 100 µM
same,TGI,[2],> 100 µM
same,TGI,[3],> 100 µM
same,TGI,[4],> 100 µM
same,TGI,[5],> 100 µM
same,TGI,[6],> 100 µM
same,TGI,[7],> 100 µM
same,TGI,[8],> 100 µM
same,TGI,[9],> 100 µM
same,TGI,[10],> 100 µM
same,TGI,[11],> 100 µM
same,TGI,[12],> 100 µM
same,TGI,[13],> 100 µM
same,TGI,[14],> 100 µM
same,TGI,[15],> 100 µM
same,TGI,[16],98.6 µM
same,TGI,[17],> 100 µM
CCOC(=O)Cn1c(=O)ccn(COCCO)c1=O,TGI,[1],> 100 µM
same,TGI,[2],> 100 µM
same,TGI,[3],> 100 µM
same,TGI,[4],> 100 µM
same,TGI,[6],> 100 µM
same,TGI,[7],> 100 µM
same,TGI,[8],> 100 µM
same,TGI,[9],> 100 µM
same,TGI,[10],> 100 µM
same,TGI,[12],> 100 µM
same,TGI,[13],> 100 µM
same,TGI,[14],> 100 µM
same,TGI,[15],> 100 µM
same,TGI,[16],> 100 µM
same,TGI,[17],> 100 µM
CCOC(=O)CNC(=O)N(CC)C12CC3CC(CC(C3)C1)C2,TGI,[1],204 µM
same,TGI,[2],414 µM
same,TGI,[3],313 µM
same,TGI,[4],409 µM
same,TGI,[5],218 µM
same,TGI,[6],251 µM
same,TGI,[7],402 µM
same,TGI,[8],369 µM
same,TGI,[9],417 µM
same,TGI,[10],278 µM
same,TGI,[11],371 µM
same,TGI,[12],195 µM
same,TGI,[13],274 µM
same,TGI,[14],524 µM
same,TGI,[15],602 µM
same,TGI,[16],222 µM
same,TGI,[17],297 µM
CC1CCCCNC1=S (stereo not drawn),TGI,[1],> 10 µM
same,TGI,[2],> 10 µM
same,TGI,[4],> 10 µM
same,TGI,[5],> 10 µM
same,TGI,[6],> 10 µM
same,TGI,[8],> 10 µM
same,TGI,[9],> 10 µM
same,TGI,[10],> 10 µM
same,TGI,[11],> 10 µM
same,TGI,[12],> 10 µM
same,TGI,[13],> 10 µM
same,TGI,[14],> 10 µM
same,TGI,[15],> 10 µM
same,TGI,[16],> 10 µM
same,TGI,[17],> 10 µM
COCCCNc1nc(N)c(C#N)c(C#N)c1C#N,TGI,[1],> 10 µM
same,TGI,[2],> 10 µM
same,TGI,[3],> 10 µM
same,TGI,[4],> 10 µM
same,TGI,[5],> 10 µM
same,TGI,[6],> 10 µM
same,TGI,[7],> 10 µM
same,TGI,[8],> 10 µM
same,TGI,[9],> 10 µM
same,TGI,[10],> 10 µM
same,TGI,[11],> 10 µM
same,TGI,[12],> 10 µM
same,TGI,[13],> 10 µM
same,TGI,[14],> 10 µM
same,TGI,[15],> 10 µM
same,TGI,[17],> 10 µM
CCOC(=O)c1ccc(N[C@@H]2c3cc4c(cc3C(c3cc(OC)c(O)c(OC)c3)[C@H]3C(=O)OCC32)OCO4)cc1O (stereo partly drawn),TGI,[1],1.32 µM
same,TGI,[3],3.26 µM
same,TGI,[5],2.4 µM
same,TGI,[6],2.69 µM
same,TGI,[7],99.3 µM
same,TGI,[8],> 100 µM
same,TGI,[9],> 21.9 µM
same,TGI,[10],14.2 µM
same,TGI,[11],2.39 µM
same,TGI,[12],3.02 µM
same,TGI,[13],2.81 µM
same,TGI,[14],> 43.5 µM
same,TGI,[15],2.51 µM
same,TGI,[16],7.38 µM
same,TGI,[17],> 48.2 µM
C[C@@H]1Nc2cc(NC(=O)OCCF)nc(N)c2N=C1c1ccccc1,TGI,[2],> 100 µM
same,GI50,[3],< 0.0001 µM
same,TGI,[4],< 0.0001 µM
same,TGI,[5],> 100 µM
same,TGI,[6],< 0.0001 µM
same,TGI,[7],< 0.0001 µM
same,TGI,[8],> 100 µM
same,TGI,[9],30 µM
same,TGI,[10],49 µM
same,GI50,[11],< 0.0001 µM
same,TGI,[12],< 0.0001 µM
same,GI50,[13],< 0.0001 µM
same,TGI,[14],< 0.0001 µM
same,TGI,[15],46.6 µM
same,TGI,[16],> 100 µM
same,TGI,[17],> 100 µM
Clc1ccc(C[P+](c2ccccc2)(c2ccccc2)c2ccccc2)c(Cl)c1,TGI,[1],10.4 µM
same,TGI,[2],12.4 µM
same,TGI,[5],12.6 µM
same,TGI,[6],15.8 µM
same,TGI,[8],18.9 µM
same,TGI,[9],20.1 µM
same,TGI,[10],15.7 µM
same,TGI,[11],7.77 µM
same,TGI,[12],3.38 µM
same,TGI,[13],30.6 µM
same,TGI,[14],15.6 µM
same,TGI,[15],32.5 µM
same,TGI,[16],5.76 µM
same,TGI,[17],21.4 µM
COc1ccc(S(=O)(=O)c2ccccc2[N+](=O)[O-])cc1,TGI,[1],> 100 µM
same,TGI,[2],> 100 µM
same,TGI,[4],> 100 µM
same,TGI,[5],> 100 µM
same,TGI,[6],> 100 µM
same,TGI,[8],> 100 µM
same,TGI,[9],> 100 µM
same,TGI,[10],> 100 µM
same,TGI,[11],> 100 µM
same,TGI,[12],> 100 µM
same,TGI,[13],> 100 µM
same,TGI,[14],> 100 µM
same,TGI,[15],> 100 µM
same,TGI,[16],> 100 µM
same,TGI,[17],> 100 µM
CC1CC2=C(S(=O)(=O)c3ccccc3)CC(S(=O)(=O)c3ccccc3)(S(=O)(=O)c3ccccc3)CC21 (stereo not drawn),TGI,[1],> 100 µM
same,TGI,[2],> 100 µM
same,TGI,[4],> 100 µM
same,TGI,[5],> 100 µM
same,TGI,[6],> 100 µM
same,TGI,[8],> 100 µM
same,TGI,[9],> 100 µM
same,TGI,[11],> 100 µM
same,TGI,[12],> 100 µM
same,TGI,[13],> 100 µM
same,TGI,[14],> 100 µM
same,TGI,[15],> 100 µM
same,TGI,[17],> 100 µM
